# According to PubChem BioAssay (NCI):
#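 A five-concentration, 48-hour dose response in 96-well plates underlies each endpoint, interpolated linearly between surrounding concentrations. At the GI50, growth is halved. TGI: total growth inhibition.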
# Assays:
# Test in all cases: NCI anticancer screen, dose series, 48 h
# K-562 leukemia = tested on: K-562 leukemia
# HL-60(TB) leukemia = tested on: HL-60(TB) leukemia
# MDA-MB-435 = tested on: MDA-MB-435
# HS 578T breast = tested on: HS 578T breast
# UACC-257 melanoma = tested on: UACC-257 melanoma
# RPMI-8226 leukemia = tested on: RPMI-8226 leukemia
# SN12C renal = tested on: SN12C renal
# SK-OV-3 ovarian = tested on: SK-OV-3 ovarian
# MDA-MB-231 breast = tested on: MDA-MB-231 breast
# SF-539 CNS = tested on: SF-539 CNS
# SNB-75 CNS = tested on: SNB-75 CNS
# ACHN renal = tested on: ACHN renal
# DU-145 prostate = tested on: DU-145 prostate
# HOP-92 NSCLC = tested on: HOP-92 NSCLC
# UO-31 renal = tested on: UO-31 renal
# HCT-15 colon = tested on: HCT-15 colon
# OVCAR-5 ovarian = tested on: OVCAR-5 ovarian
# SF-295 CNS = tested on: SF-295 CNS
# SR leukemia = tested on: SR leukemia
# A498 renal = tested on: A498 renal
# PC-3 prostate = tested on: PC-3 prostate
# SW-620 colon = tested on: SW-620 colon
# SK-MEL-28 melanoma = tested on: SK-MEL-28 melanoma
# HCC-2998 colon = tested on: HCC-2998 colon
# LOX IMVI melanoma = tested on: LOX IMVI melanoma
# NCI-H23 lung = tested on: NCI-H23 lung
# NCI/ADR-RES ovarian = tested on: NCI/ADR-RES ovarian
# CCRF-CEM leukemia = tested on: CCRF-CEM leukemia
# SK-MEL-5 melanoma = tested on: SK-MEL-5 melanoma
# UACC-62 melanoma = tested on: UACC-62 melanoma
# MOLT-4 leukemia = tested on: MOLT-4 leukemia
# T-47D breast = tested on: T-47D breast
# HCT-116 colon = tested on: HCT-116 colon
# TK-10 renal = tested on: TK-10 renal
# 786-0 renal = tested on: 786-0 renal
# SF-268 CNS = tested on: SF-268 CNS
# HT29 colon = tested on: HT29 colon
# COLO 205 colon = tested on: COLO 205 colon
# A549 NSCLC = tested on: A549 NSCLC
# NCI-H460 lung = tested on: NCI-H460 lung
# U251 CNS = tested on: U251 CNS
# SNB-19 CNS = tested on: SNB-19 CNS
# BT-549 breast = tested on: BT-549 breast
# KM12 colon = tested on: KM12 colon
# OVCAR-4 ovarian = tested on: OVCAR-4 ovarian
# HOP-62 NSCLC = tested on: HOP-62 NSCLC
# MALME-3M melanoma = tested on: MALME-3M melanoma
# OVCAR-8 ovarian = tested on: OVCAR-8 ovarian
# CAKI-1 renal = tested on: CAKI-1 renal
# MCF7 breast = tested on: MCF7 breast
# IGROV1 ovarian = tested on: IGROV1 ovarian
# NCI-H226 lung = tested on: NCI-H226 lung
# EKVX NSCLC = tested on: EKVX NSCLC
# SK-MEL-2 melanoma = tested on: SK-MEL-2 melanoma
# NCI-H522 lung = tested on: NCI-H522 lung
# M14 melanoma = tested on: M14 melanoma
# RXF 393 renal = tested on: RXF 393 renal
compound,measurement,setting,value
IP(CCCCCCCCCCSc1n(Cc2ccc3ccccc3c2)c(-c2ccccc2)c(-c2ccccc2)[n+]1Cc1ccc2ccccc2c1)(c1ccccc1)(c1ccccc1)c1ccccc1,GI50,K-562 leukemia,411 nM
same,TGI,K-562 leukemia,1840 nM
same,GI50,HL-60(TB) leukemia,189 nM
same,TGI,HL-60(TB) leukemia,438 nM
same,GI50,MDA-MB-435,403 nM
same,TGI,MDA-MB-435,1590 nM
same,GI50,HS 578T breast,670 nM
same,TGI,HS 578T breast,3960 nM
same,GI50,UACC-257 melanoma,412 nM
same,TGI,UACC-257 melanoma,1700 nM
same,GI50,RPMI-8226 leukemia,337 nM
same,TGI,RPMI-8226 leukemia,1500 nM
same,GI50,SN12C renal,399 nM
same,TGI,SN12C renal,1540 nM
same,GI50,SK-OV-3 ovarian,714 nM
same,TGI,SK-OV-3 ovarian,2170 nM
same,GI50,MDA-MB-231 breast,318 nM
same,TGI,MDA-MB-231 breast,1260 nM
same,GI50,SF-539 CNS,771 nM
same,TGI,SF-539 CNS,2150 nM
same,GI50,SNB-75 CNS,389 nM
same,TGI,SNB-75 CNS,1890 nM
same,GI50,ACHN renal,1820 nM
same,TGI,ACHN renal,3640 nM
same,GI50,DU-145 prostate,748 nM
same,TGI,DU-145 prostate,2190 nM
same,GI50,HOP-92 NSCLC,240 nM
same,TGI,HOP-92 NSCLC,932 nM
same,GI50,UO-31 renal,1820 nM
same,TGI,UO-31 renal,4890 nM
same,GI50,HCT-15 colon,1790 nM
same,TGI,HCT-15 colon,3420 nM
same,GI50,OVCAR-5 ovarian,1500 nM
same,TGI,OVCAR-5 ovarian,3000 nM
same,GI50,SF-295 CNS,1570 nM
same,TGI,SF-295 CNS,3100 nM
same,GI50,SR leukemia,347 nM
same,TGI,SR leukemia,1720 nM
same,GI50,A498 renal,1350 nM
same,TGI,A498 renal,3020 nM
same,GI50,PC-3 prostate,415 nM
same,TGI,PC-3 prostate,1730 nM
same,GI50,SW-620 colon,794 nM
same,TGI,SW-620 colon,2160 nM
same,GI50,SK-MEL-28 melanoma,764 nM
same,TGI,SK-MEL-28 melanoma,2140 nM
same,GI50,HCC-2998 colon,531 nM
same,TGI,HCC-2998 colon,1920 nM
same,GI50,LOX IMVI melanoma,553 nM
same,TGI,LOX IMVI melanoma,1820 nM
same,GI50,NCI-H23 lung,322 nM
same,TGI,NCI-H23 lung,1320 nM
same,GI50,NCI/ADR-RES ovarian,3940 nM
same,TGI,NCI/ADR-RES ovarian,23600 nM
same,GI50,CCRF-CEM leukemia,489 nM
same,TGI,CCRF-CEM leukemia,1950 nM
same,GI50,SK-MEL-5 melanoma,1100 nM
same,TGI,SK-MEL-5 melanoma,2310 nM
same,GI50,UACC-62 melanoma,562 nM
same,TGI,UACC-62 melanoma,2020 nM
same,GI50,MOLT-4 leukemia,541 nM
same,TGI,MOLT-4 leukemia,2310 nM
O=C(Nc1ccc(F)cc1)c1cc(-c2ccc(F)cc2F)ccc1O,GI50,T-47D breast,1750 nM
same,TGI,T-47D breast,8140 nM
same,GI50,K-562 leukemia,2810 nM
same,TGI,K-562 leukemia,> 100000 nM
same,GI50,HCT-116 colon,2810 nM
same,TGI,HCT-116 colon,12600 nM
same,GI50,HL-60(TB) leukemia,1930 nM
same,TGI,HL-60(TB) leukemia,5040 nM
same,GI50,HS 578T breast,2790 nM
same,TGI,HS 578T breast,9620 nM
same,GI50,TK-10 renal,2910 nM
same,TGI,TK-10 renal,23200 nM
same,GI50,786-0 renal,3310 nM
same,TGI,786-0 renal,16700 nM
same,GI50,UACC-257 melanoma,1610 nM
same,TGI,UACC-257 melanoma,6970 nM
same,GI50,SF-268 CNS,2670 nM
same,TGI,SF-268 CNS,> 100000 nM
same,GI50,RPMI-8226 leukemia,1740 nM
same,TGI,RPMI-8226 leukemia,6380 nM
same,GI50,SN12C renal,2360 nM
same,TGI,SN12C renal,8300 nM
same,GI50,SK-OV-3 ovarian,2650 nM
same,TGI,SK-OV-3 ovarian,8990 nM
same,GI50,MDA-MB-231 breast,2380 nM
same,TGI,MDA-MB-231 breast,6470 nM
same,GI50,HT29 colon,12700 nM
same,TGI,HT29 colon,> 100000 nM
same,GI50,SF-539 CNS,3650 nM
same,TGI,SF-539 CNS,18500 nM
same,GI50,SNB-75 CNS,1840 nM
same,TGI,SNB-75 CNS,5550 nM
same,GI50,COLO 205 colon,17100 nM
same,TGI,COLO 205 colon,50100 nM
same,GI50,ACHN renal,2770 nM
same,TGI,ACHN renal,8510 nM
same,GI50,A549 NSCLC,3250 nM
same,TGI,A549 NSCLC,> 100000 nM
same,GI50,DU-145 prostate,3330 nM
same,TGI,DU-145 prostate,> 100000 nM
same,GI50,NCI-H460 lung,2980 nM
same,TGI,NCI-H460 lung,12800 nM
same,GI50,HOP-92 NSCLC,1470 nM
same,TGI,HOP-92 NSCLC,5240 nM
same,GI50,U251 CNS,3230 nM
same,TGI,U251 CNS,24600 nM
same,GI50,UO-31 renal,2110 nM
same,TGI,UO-31 renal,8670 nM
same,GI50,SNB-19 CNS,3360 nM
same,TGI,SNB-19 CNS,31900 nM
same,GI50,BT-549 breast,2780 nM
same,TGI,BT-549 breast,18600 nM
same,GI50,KM12 colon,3030 nM
same,TGI,KM12 colon,9930 nM
same,GI50,HCT-15 colon,2890 nM
same,TGI,HCT-15 colon,13000 nM
same,GI50,OVCAR-4 ovarian,2740 nM
same,TGI,OVCAR-4 ovarian,45500 nM
same,GI50,OVCAR-5 ovarian,3370 nM
same,TGI,OVCAR-5 ovarian,37800 nM
same,GI50,HOP-62 NSCLC,3130 nM
same,TGI,HOP-62 NSCLC,17100 nM
same,GI50,SF-295 CNS,2440 nM
same,TGI,SF-295 CNS,7550 nM
same,GI50,MALME-3M melanoma,1920 nM
same,TGI,MALME-3M melanoma,5640 nM
same,GI50,SR leukemia,2930 nM
same,TGI,SR leukemia,80300 nM
same,GI50,OVCAR-8 ovarian,3200 nM
same,TGI,OVCAR-8 ovarian,> 100000 nM
same,GI50,A498 renal,1470 nM
same,TGI,A498 renal,4130 nM
same,GI50,CAKI-1 renal,1950 nM
same,TGI,CAKI-1 renal,6000 nM
same,GI50,MCF7 breast,2310 nM
same,TGI,MCF7 breast,10100 nM
same,GI50,PC-3 prostate,2780 nM
same,TGI,PC-3 prostate,19800 nM
same,GI50,IGROV1 ovarian,3450 nM
same,TGI,IGROV1 ovarian,> 100000 nM
same,GI50,SW-620 colon,3400 nM
same,TGI,SW-620 colon,> 100000 nM
same,GI50,SK-MEL-28 melanoma,2900 nM
same,TGI,SK-MEL-28 melanoma,> 100000 nM
same,GI50,HCC-2998 colon,3120 nM
same,TGI,HCC-2998 colon,42800 nM
same,GI50,NCI-H226 lung,2880 nM
same,TGI,NCI-H226 lung,9820 nM
same,GI50,NCI-H23 lung,2470 nM
same,TGI,NCI-H23 lung,7780 nM
same,GI50,NCI/ADR-RES ovarian,2490 nM
same,TGI,NCI/ADR-RES ovarian,8510 nM
same,GI50,CCRF-CEM leukemia,3290 nM
same,TGI,CCRF-CEM leukemia,> 100000 nM
same,GI50,EKVX NSCLC,2610 nM
same,TGI,EKVX NSCLC,9170 nM
same,GI50,SK-MEL-5 melanoma,1560 nM
same,TGI,SK-MEL-5 melanoma,3630 nM
same,GI50,SK-MEL-2 melanoma,1860 nM
same,TGI,SK-MEL-2 melanoma,5570 nM
same,GI50,NCI-H522 lung,1830 nM
same,TGI,NCI-H522 lung,8300 nM
same,GI50,M14 melanoma,3320 nM
same,TGI,M14 melanoma,> 100000 nM
same,GI50,UACC-62 melanoma,1390 nM
same,TGI,UACC-62 melanoma,4610 nM
same,GI50,MOLT-4 leukemia,2570 nM
same,TGI,MOLT-4 leukemia,7900 nM
same,GI50,RXF 393 renal,2750 nM
same,TGI,RXF 393 renal,8040 nM
